Patent US12291508B2, “Hydrazide containing nuclear transport modulators and uses thereof” (Karyopharm Therapeutics Inc., priority 2011, dated 2025)

Legend:
[1] = Brain to Plasma (B:P) ratio in mice; assay type: in vivo; settings: mouse, brain/plasma, 10 mg/kg po, 2 hours post-dose
Method: Brain to Plasma (B:P) Ratio. […] Following collection, brain tissue was rinsed with cold saline, dried on filter paper, weighed and snap-frozen by placing on dry ice. All samples were stored frozen at approximately −80° C. until analysis. […] Plasma samples were treated with the identical method (except homogenization step) and the concentration of compound in each matrix was calculated based on generated standard curves.

[2] = Pharmacokinetic (PK) assay, plasma AUC in mice; assay type: in vivo; settings: mouse, plasma, 10 mg/kg po
Method: AUC. Blood was collected from mice (N=3) to contribute to the total of 10 time points (pre-dose, 5 min, 15 min, 30 min, 1 hour, 2 hours, 4 hours, 8 hours, 12 hours and 24 hours post dose). Mice were bled on a rotating basis, each mouse contributing 3 time points to the blood collection. At the designated time points, animals were anaesthetized under isoflurane, and approximately 110 μL of blood per time point was collected via retro-orbital puncture into pre-cooled K2EDTA (anti-coagulant) tubes. Blood samples were put on wet ice and centrifuged (2000 g, 5 min at 4° C.) to obtain plasma within 30 minutes of sample collection. All samples were stored frozen at approximately −80° C. until analysis. Prior to analysis, samples were mixed with internal standard (dexamethasone) in acetonitrile, vortexed, centrifuged, and supernatant was injected for analysis. Concentration of compounds in plasma was determined using LC-MS-MS instrumentation (API 4000, Triple Quadruple with electrospray ionization; Acuity Ultra Performance Liquid Chromatography column C18, with MeOH and formic acid as organic solvents). AUC values were calculated using WinNonlin Professional 6.2 software package, non-compartmental pharmacokinetic model NCA200.

[3] = target: T1, CRM1-mediated nuclear export (Homo sapiens, UniProt O14980); assay: RevGFP assay, inhibition of nuclear export; assay type: cell-based; settings: U2OS-RevGFP cells, about 1 hr incubation; read-out: Rev Export
T1 construct: endogenous in cells; host or cells: U2OS-RevGFP cells
Method: The ability of exemplary compounds of the invention to inhibit CRM1-mediated nuclear export was assessed in a RevGFP assay. Rev is a protein from human immunodeficiency virus type 1 (HIV-1) and contains a nuclear export signal (NES) in its C-terminal domain and a nuclear localization signal (NLS) in its N-terminal domain. Nuclear export of Rev protein is dependent on the classical NES/CRM1 pathway (Neville et al. 1997).
In this assay, U2OS-RevGFP cells were seeded onto clear-bottomed, black, 384-well plates the day before the experiment. Compounds were serially diluted 1:2 in DMEM, starting from 40 μM in a separate, 384-well plate, and then transferred onto the cells. The cells were incubated with compound for about 1 hr before fixation with 3.7% formaldehyde and nuclei staining with Hoechst 33258. The amount of GFP in cell nuclei was measured and the IC50 of each compound was determined (Kau et al. 2003).

[4] = test system: MM.1S multiple myeloma cell line; assay: CellTiter 96 AQueous One Solution cell proliferation assay, MM.1S; assay type: cell-based; settings: Homo sapiens, MM1.S, 72 h of treatment, read-out: Cytotoxicity Assay
From the text: The CellTiter 96® AQueous One Solution cell proliferation assay (Promega) was used on MM.1S multiple myeloma cell line to study the cytotoxic and cytostatic properties of the compounds. The assay is based on the cleavage of the tetrazolium salt, MTS, in the presence of an electron-coupling reagent PES (phenazine ethosulfate). The MTS tetrazolium compound is bioreduced by cells into a colored formazan product that is soluble in tissue culture medium. This conversion is presumably accomplished by NADPH or NADH produced by dehydrogenase enzymes in metabolically active cells. Assays are performed by adding a small amount of the CellTiter 96® AQueous One solution reagent directly to culture wells, incubating for 1-4 hours and then recording the absorbance at 490 nm with a 96-well plate reader.
The cells were seeded at 5×10^3 to 1.5×10^4 cells in each well of a 96-well plate in 100 μL of fresh culture medium and adherent cells were allowed to attach overnight. The stock solutions of the compounds were diluted in cell culture medium to obtain eight concentrations of each drug, ranging from 1 nM to 30 μM and DMSO at less than 1% v/v was used as a negative control. The resulting drug solutions were transferred onto the cells. After 72 h of treatment, 20 μl of CellTiter 96® AQueous reagent was added into each well of the 96-well assay plates and the plate was incubated at 37° C. for 1-4 hours in a humidified, 5% CO2 atmosphere. Then the absorbance of each well was recorded at 490 nm using a 96-well plate reader. In most cases, the assay was performed in triplicate and the results were presented as half maximal inhibitory concentration (IC50). Optical density versus compound concentration was plotted and analyzed using non-linear regression equations (IDBS XLfit) and the IC50 for each compound was calculated.

T1 sequence (O14980 whole entry): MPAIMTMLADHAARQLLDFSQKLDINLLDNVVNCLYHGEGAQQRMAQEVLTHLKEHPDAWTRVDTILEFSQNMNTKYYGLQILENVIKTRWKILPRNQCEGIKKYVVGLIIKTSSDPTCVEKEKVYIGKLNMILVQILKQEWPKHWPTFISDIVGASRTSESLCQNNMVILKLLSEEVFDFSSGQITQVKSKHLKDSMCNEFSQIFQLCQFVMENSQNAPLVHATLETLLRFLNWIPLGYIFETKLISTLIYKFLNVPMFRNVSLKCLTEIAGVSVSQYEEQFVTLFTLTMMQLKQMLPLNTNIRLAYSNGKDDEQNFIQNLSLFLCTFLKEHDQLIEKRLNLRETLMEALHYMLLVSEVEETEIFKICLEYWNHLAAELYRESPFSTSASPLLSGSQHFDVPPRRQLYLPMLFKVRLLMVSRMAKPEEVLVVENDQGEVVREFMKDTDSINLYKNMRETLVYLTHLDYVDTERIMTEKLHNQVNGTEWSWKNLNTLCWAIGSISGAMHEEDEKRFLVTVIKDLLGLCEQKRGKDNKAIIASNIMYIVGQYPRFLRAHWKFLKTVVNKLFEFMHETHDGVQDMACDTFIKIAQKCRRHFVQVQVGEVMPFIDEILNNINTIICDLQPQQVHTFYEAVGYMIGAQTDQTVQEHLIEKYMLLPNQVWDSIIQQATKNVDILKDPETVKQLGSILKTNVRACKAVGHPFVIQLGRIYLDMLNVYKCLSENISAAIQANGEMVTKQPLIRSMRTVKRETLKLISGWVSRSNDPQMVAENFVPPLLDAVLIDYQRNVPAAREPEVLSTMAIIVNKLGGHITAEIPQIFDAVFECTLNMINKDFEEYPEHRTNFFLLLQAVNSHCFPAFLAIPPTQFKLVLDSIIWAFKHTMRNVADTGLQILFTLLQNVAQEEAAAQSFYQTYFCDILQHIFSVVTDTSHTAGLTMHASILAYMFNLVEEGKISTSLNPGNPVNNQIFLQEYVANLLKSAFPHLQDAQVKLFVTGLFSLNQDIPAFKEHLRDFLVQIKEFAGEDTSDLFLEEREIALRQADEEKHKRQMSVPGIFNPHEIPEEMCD

Q: For CN(NC(=O)/C=C\n1cnc(-c2cc(C(F)(F)F)cc(C(F)(F)F)c2)n1)c1ccccn1 [Compound I-7, (Z)-3-(3-(3,5-bis(trifluoromethyl)phenyl)-1H-1,2,4-triazol-1-yl)-N‘-methyl-N’-(pyridin-2-yl)acrylohydrazide], which Kp at 2 h [1] is on record?
A: Its Kp at 2 h is 1.5.

Q: And the AUC(0-inf) [2]?
A: Its AUC(0-inf) is 12200 ng·h/mL.

Q: And the IC50 [3]?
A: Its IC50 is no more than 1000 nM.

Q: What about the IC50 [4] of the same compound?
A: The IC50 was no more than 1000 nM.
